From patent US12162850B2, “Formulations” (Betagenon AB, priority 2019, dated 2024)

Assays:
[1] = Particle size analysis of dry-milled products (laser diffraction, Shimadzu SALD-2300); format: physicochemical
Protocol: Milling was performed for Examples 1a to 1c using an air jet mill (Equipment code: CP-AJM-01; Promas engineers) with the following parameters: Micronisation was repeated in all examples by performing the air jet milling for a second time using the same parameters. This allowed the particle size D90 to be reduced to less than 10 μm. [table] Four drops of Tween 20 were added to 25 mL of water and the mixture was sonicated for 3 minutes to form the dispersant solution. 0.05 g of milled material was transferred into a 250 mL glass beaker. 25 mL of the dispersant solution (Tween 20/water mixture) was added to the beaker with continuous swirling for 2 to 3 minutes. The suspension was transferred into the measuring unit and the particle size distribution measurements were conducted in triplicate.

[2] = Single dose oral pharmacokinetic studies in rabbits; format: in vivo, male New Zealand White rabbits; details: for Plasma concentration, mean: 90 mg/kg b.w. oral; for Cmax / MRT last / Tmax / AUC(0-t) / AUC(0-inf) / half-life: male, New Zealand White, plasma, po
Protocol: The studies detailed below (and referred to as Examples 2 to 8) were conducted to provide comparative single dose oral pharmacokinetics data for Compound 1, as well as sodium and potassium salts of that compound, using non-coated and enteric-coated capsules in male New Zealand White rabbits.
Compound 1 was made using the process described in WO 2011/004162 and milled as described for Example 1c. The non-coated or enteric coated gelatin capsules were individually filled with 180 mg of dry-milled Compound 1 together with accompanying excipients as indicated. Both capsule types were filled with Compound 1 together with 1.8 mg of sodium docusate, 0.18 mg of PVP K30 and 9 mg of mannitol.
Similarly, Compound 2, non-coated or enteric coated gelatin capsules were individually filled with 180 mg of dry-milled Compound 2 (as obtained in Example 1f) together with 1.8 mg of sodium docusate, 0.18 mg of PVP K30 and 9 mg of mannitol.
For Compound 3, non-coated or enteric coated gelatin capsules were individually filled with 90 mg of dry-milled Compound 3 (as obtained in Example 1i) together with 0.90 mg of sodium docusate, 0.09 mg of PVP K30 and 4.50 mg of mannitol.
40 mL of the 2% w/v methyl cellulose solution was added to a 250 mL conical flask together with 10 g of 2 mm glass beads, and vigorously stirred. Compound 1 (720 mg) was slowly added to the solution and the mixture was with continuously stirred for 1 h. The homogenate was transferred to separate flask and its pH recorded. The suspension formulation was prepared before administration to the animals.
Adult healthy male New Zealand white rabbits aged approximately 2 to 3 months old were used for experimentation after 7 days of acclimatization.
To dose the filled capsules, a soft plastic dosing tube was used. The filled capsule was inserted into the dosing tube so that the short end of the capsule protrudes slightly from the tip of the tube. The tip of the capsule was dipped in mineral oil to aid swallowing.
To dose the suspension, an infant feeding tube was used. The feeding tube was inserted through the mouth of the rabbit to the oesophagus and the stomach, and ascertained that it has not been placed in the trachea before dosing to the animals. The suspension of the Compound 1 was administered through the feeding tube. After the administration of the suspension, drinking water of approximately 2.0-2.5 mL was administered to flush out the contents in the feeding tube.
The animals were restrained in a rabbit restrainer and blood samples (400-500 μL/time point) were collected via the central ear artery at 0.16, 0.25, 0.50, 1.0, 2.0, 4.0, 6.0, 8.0, 24.0, 48.0 and 72 hours post-dosing. Collected blood specimens were centrifuged at 4000 or 6000 rpm, 4° C. for 10 minutes and plasma samples were separated and stored at −80° C. until analysis.
Concentrations of the analyte of Compound 1 in New Zealand white rabbits was determined using an API 3200 Q-trap LC-MS/MS system.
Chromatographic separation was achieved on Zorbax C18, 50×4.6 mm, 5 μm column with methanol-0.1% formic acid as mobile phase with gradient elution. The flow rate was set at 1.0 mL min^−1. Detection was accomplished by a triple-quadrupole tandem mass spectrometer in multiple-reaction monitoring (MRM) scanning via electrospray ionization source, applied in the positive mode. The optimised mass transition ion-pairs for quantitation were m/z 379.999→125.000 for the compound 1 and m/z 376.165→165.00 for the ISD (Haloperidol). Calibration plots were linear over the range of 11.062 to 20594.820 ng/mL.
The data of plasma concentration to respective time points for the analyte Compound 1 were used for the pharmacokinetic analysis. Pharmacokinetic analysis was performed using non-compartmental analysis (NCA) module of Phoenix WinNonlin 6.3 software to determine the following pharmacokinetic parameters: • Cmax • Tmax • AUC0-t • AUC0-∞ • T1/2 • MRT […]

[3] = after 1st milling (air jet mill)
[4] = after 2nd milling (air jet mill)
[5] = rabbit, 25 mg/kg, enteric coated capsule with MgO, 25 mg/kg b.w. oral single dose, rabbit plasma (Example 9)
[6] = rabbit, 25 mg/kg, enteric coated capsule with mannitol, 25 mg/kg b.w. oral single dose, rabbit plasma (Example 10)
[7] = rabbit, 53 mg/kg, enteric coated capsule with MgO, 53 mg/kg b.w. (equivalent to 50 mg/kg Compound 1) oral single dose, rabbit plasma (Example 11)
[8] = rabbit, 90 mg/kg, enteric coated capsule, 90 mg/kg b.w. oral single dose, rabbit plasma (Examples 5, 6, 7)
[9] = rabbit, 90 mg/kg, non-coated capsule, 90 mg/kg b.w. oral single dose, rabbit plasma (Examples 2, 3, 4)

Compound: O=C(Nc1nc(=O)n(Cc2ccc(Cl)cc2)s1)c1ccc(Cl)cc1.[Na] [Compound 2, 4-chloro-N-[2-[(4-chlorophenyl)methyl]-3-oxo-1,2,4-thiadiazol-5-yl]benzamide sodium salt]
- Particle size distribution D10 [1, 3]: 0.508 μm
- Particle size distribution D50 [1, 3]: 3.58 μm
- Particle size distribution D90 [1, 3]: 11.5 μm
- Particle size distribution D100 [1, 3]: 31.1 μm
- Particle size distribution D10 [1, 4]: 0.414 μm
- Particle size distribution D50 [1, 4]: 2.70 μm
- Particle size distribution D90 [1, 4]: 8.29 μm
- Particle size distribution D100 [1, 4]: 24.0 μm
- Particle size distribution D10 ([1]; before milling): 1.11 μm
- Particle size distribution D50 ([1]; before milling): 7.62 μm
- Particle size distribution D90 ([1]; before milling): 31.7 μm
- Particle size distribution D100 ([1]; before milling): 185 μm
- Plasma concentration, mean ([2]; 0.00 h, enteric coated capsule, rabbit): 0.000 ng/mL
- Plasma concentration, mean ([2]; 0.00 h, non-coated capsule, rabbit): 0.000 ng/mL
- Plasma concentration, mean ([2]; 0.16 h, enteric coated capsule, rabbit): 0.000 ng/mL
- Plasma concentration, mean ([2]; 0.16 h, non-coated capsule, rabbit): 0.000 ng/mL
- Plasma concentration, mean ([2]; 0.25 h, enteric coated capsule, rabbit): 0.000 ng/mL
- Plasma concentration, mean ([2]; 0.25 h, non-coated capsule, rabbit): 51.798 ng/mL
- Plasma concentration, mean ([2]; 0.50 h, enteric coated capsule, rabbit): 0.000 ng/mL
- Plasma concentration, mean ([2]; 0.50 h, non-coated capsule, rabbit): 206.386 ng/mL
- Plasma concentration, mean ([2]; 1.00 h, enteric coated capsule, rabbit): 9.027 ng/mL
- Plasma concentration, mean ([2]; 1.00 h, non-coated capsule, rabbit): 594.725 ng/mL
- Plasma concentration, mean ([2]; 2.00 h, enteric coated capsule, rabbit): 13.276 ng/mL
- Plasma concentration, mean ([2]; 2.00 h, non-coated capsule, rabbit): 1377.183 ng/mL
- Plasma concentration, mean ([2]; 4.00 h, enteric coated capsule, rabbit): 624.216 ng/mL
- Plasma concentration, mean ([2]; 4.00 h, non-coated capsule, rabbit): 15776.855 ng/mL
- Plasma concentration, mean ([2]; 6.00 h, enteric coated capsule, rabbit): 11866.638 ng/mL
- Plasma concentration, mean ([2]; 6.00 h, non-coated capsule, rabbit): 46144.063 ng/mL
- Plasma concentration, mean ([2]; 8.00 h, enteric coated capsule, rabbit): 18413.782 ng/mL
- Plasma concentration, mean ([2]; 8.00 h, non-coated capsule, rabbit): 71215.612 ng/mL
- Plasma concentration, mean ([2]; 24.00 h, enteric coated capsule, rabbit): 99879.409 ng/mL
- Plasma concentration, mean ([2]; 24.00 h, non-coated capsule, rabbit): 98809.233 ng/mL
- Plasma concentration, mean ([2]; 48.00 h, enteric coated capsule, rabbit): 101178.612 ng/mL
- Plasma concentration, mean ([2]; 48.00 h, non-coated capsule, rabbit): 93029.388 ng/mL
- Plasma concentration, mean ([2]; 72.00 h, enteric coated capsule, rabbit): 90966.319 ng/mL
- Plasma concentration, mean ([2]; 72.00 h, non-coated capsule, rabbit): 84071.553 ng/mL
- improvement in systemic exposure compared with the milled free base active ingredient ([2]; dry milled, capsules, 90 mg/kg oral, rabbit): greatest improvements
- increase in the systemic exposure compared to a standard suspension of the active ingredient (example 8) ([2]; dry milled, non-coated or enteric-coated capsules, 90 mg/kg oral, rabbit): up to six-fold
- systemic exposure when formulated together with an alkaline excipient ([2]; enteric coated capsule with MgO, 53 mg/kg oral, rabbit (Example 11)): significant amount of systemic exposure
- AUCextrap ([2]; enteric coated capsule, 90 mg/kg b.w. oral single dose, rabbit plasma (Examples 5, 6, 7)): 88.81 ± 3.497%
- systemic exposure when formulated with an alkaline excipient in comparison with formulation in the absence of an alkaline excipient ([2]; enteric coated capsules, 25 mg/kg oral, rabbit, Example 9 (MgO) vs Example 10 (mannitol)): increase
- Cmax [2, 5]: 49600 ± 4800 ng/mL
- MRT last [2, 5]: 27.67 ± 0.11 h
- Tmax [2, 5]: 24 h
- Cmax [2, 6]: 47400 ± 7060 ng/mL
- MRT last [2, 6]: 30 ± 1.73 h
- Tmax [2, 6]: 32 ± 13.9 h
- AUC(0-t) [2, 7]: 8930 ± 1190 µg·h/mL
- Cmax [2, 7]: 153000 ± 24300 ng/mL
- MRT last [2, 7]: 40.9 ± 1.43 h
- AUC(0-inf) [2, 8]: 55700 ± 22700 µg·h/mL
- AUC(0-t) [2, 8]: 5710 ± 1140 µg·h/mL
- Cmax [2, 8]: 101000 ± 17000 ng/mL
- MRT last [2, 8]: 43 ± 1.59 h
- Tmax [2, 8]: 32 ± 13.9 h
- half-life [2, 8]: 368 ± 109 h
- AUC(0-inf) [2, 9]: 38100 ± 34700 µg·h/mL
- AUC(0-t) [2, 9]: 5980 ± 2270 µg·h/mL
- Cmax [2, 9]: 99000 ± 34600 ng/mL
- MRT last [2, 9]: 38.8 ± 1.2 h
- Tmax [2, 9]: 32 ± 13.9 h
- half-life [2, 9]: 227 ± 140 h
- AUCextrap ([2]; non-coated capsule, 90 mg/kg b.w. oral single dose, rabbit plasma (Examples 2, 3, 4)): 79.01 ± 8.87%
